Data taken from patent US12077503B2, “Substituted cyclic amides and their use as herbicides” (FMC CORPORATION, priority 2015, dated 2024).

Experiments:
Assay type in all cases: in vivo
[1] = tested on: barnyardgrass (Echinochloa crus-galli); assay: Test G Pre-Emergence Protocol; conditions: Echinochloa crus-galli, pre-emergence, 312 h, evaluated after 13 days; for pest or weed control at 15.625 g/ha: 15.625 g ai/ha; for pest or weed control at 15.625 g/ha / pest or weed control at 250 g/ha: read-out: Barnyardgrass damage rating (100=total damage to plant; 0=no damage to plant); for pest or weed control at 62.5 g/ha: 62.5 g ai/ha, 100=total damage to plant, 0=no damage to plant, read-out: Barnyardgrass damage rating; for pest or weed control at 250 g/ha: 250 g ai/ha
Outline: (§1)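 Spraying took place one day after sowing, at 15.625, 62.5 or 250 g/ha, using an acetone/water (50:50) spray solution containing 0.5% Tween 20. Plants were kept under glasshouse conditions (24/16 °C, 14 h light, 65% humidity, watered twice daily), and injury was rated 0–100 at day 13.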

corn (Zea mays) [2] = assay: Test G Pre-Emergence Protocol; conditions: Zea mays, pre-emergence, 312 h, evaluated after 13 days; for plant injury at 15.625 g/ha: 15.625 g ai/ha; for plant injury at 15.625 g/ha / plant injury at 250 g/ha: read-out: Corn damage rating (100=total damage to plant; 0=no damage to plant); for plant injury at 62.5 g/ha: 62.5 g ai/ha, 100=total damage to plant, 0=no damage to plant, read-out: Corn damage rating; for plant injury at 250 g/ha: 250 g ai/ha
Outline: as §1

[3] = tested on: giant foxtail (Setaria faberi); assay: Test G Pre-Emergence Protocol; conditions: Setaria faberi, pre-emergence, 312 h, evaluated after 13 days; for pest or weed control at 15.625 g/ha: 15.625 g ai/ha; for pest or weed control at 15.625 g/ha / pest or weed control at 250 g/ha: read-out: Foxtail, Giant damage rating (100=total damage to plant; 0=no damage to plant); for pest or weed control at 62.5 g/ha: 62.5 g ai/ha, 100=total damage to plant, 0=no damage to plant, read-out: Foxtail, Giant damage rating; for pest or weed control at 250 g/ha: 250 g ai/ha
Outline: as §1

[4] = tested on: ivy-leaved morning glory (Ipomoea hederacea); assay: Test G Pre-Emergence Protocol; conditions: Ipomoea, pre-emergence, 312 h, evaluated after 13 days; for pest or weed control at 15.625 g/ha: 15.625 g ai/ha; for pest or weed control at 15.625 g/ha / pest or weed control at 250 g/ha: read-out: Morningglory, Ivy-leaved damage rating (100=total damage to plant; 0=no damage to plant); for pest or weed control at 62.5 g/ha: 62.5 g ai/ha, 100=total damage to plant, 0=no damage to plant, read-out: Morningglory, Ivy-leaved damage rating; for pest or weed control at 250 g/ha: 250 g ai/ha
Outline: as §1

[5] = tested on: redroot pigweed (Amaranthus retroflexus); assay: Test G Pre-Emergence Protocol; conditions: Amaranthus retroflexus, pre-emergence, 312 h, evaluated after 13 days; for pest or weed control at 15.625 g/ha: 15.625 g ai/ha; for pest or weed control at 15.625 g/ha / pest or weed control at 250 g/ha: read-out: Pigweed, Redroot damage rating (100=total damage to plant; 0=no damage to plant); for pest or weed control at 62.5 g/ha: 62.5 g ai/ha, 100=total damage to plant, 0=no damage to plant, read-out: Pigweed, Redroot damage rating; for pest or weed control at 250 g/ha: 250 g ai/ha
Outline: as §1

[6] = tested on: velvetleaf (Abutilon theophrasti); assay: Test G Pre-Emergence Protocol; conditions: Abutilon theophrasti, pre-emergence, 312 h, evaluated after 13 days; for pest or weed control at 15.625 g/ha: 15.625 g ai/ha; for pest or weed control at 15.625 g/ha / pest or weed control at 250 g/ha: read-out: Velvetleaf damage rating (100=total damage to plant; 0=no damage to plant); for pest or weed control at 62.5 g/ha: 62.5 g ai/ha, 100=total damage to plant, 0=no damage to plant, read-out: Velvetleaf damage rating; for pest or weed control at 250 g/ha: 250 g ai/ha
Outline: as §1

[7] = tested on: barnyardgrass (Echinochloa crus-galli); assay: Test G Post-Emergence Protocol; conditions: Echinochloa crus-galli, post-emergence, 312 h, read-out: Barnyardgrass damage rating; for pest or weed control at 15.625 g/ha: 15.625 g ai/ha, evaluated after 13 days (100=total damage to plant; 0=no damage to plant); for pest or weed control at 62.5 g/ha: 62.5 g ai/ha; for pest or weed control at 62.5 g/ha / pest or weed control at 250 g/ha: evaluated after 13 days, 100=total damage to plant, 0=no damage to plant; for pest or weed control at 250 g/ha: 250 g ai/ha
Outline: (§2)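 Damage was rated 13 days after treatment from 0 (none) to 100 (plant killed). Compound was applied as a spray at 15.625, 62.5 or 250 g/ha in 50:50 acetone/water containing 0.5% Tween 20, onto 8-day-old potted plants kept in a glasshouse (24/16 °C, 14 h light, 65% humidity).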

corn (Zea mays) [8] = assay: Test G Post-Emergence Protocol; conditions: Zea mays, post-emergence, 312 h, read-out: Corn damage rating; for plant injury at 15.625 g/ha: 15.625 g ai/ha, evaluated after 13 days (100=total damage to plant; 0=no damage to plant); for plant injury at 62.5 g/ha: 62.5 g ai/ha; for plant injury at 62.5 g/ha / plant injury at 250 g/ha: evaluated after 13 days, 100=total damage to plant, 0=no damage to plant; for plant injury at 250 g/ha: 250 g ai/ha
Outline: as §2

[9] = tested on: giant foxtail (Setaria faberi); assay: Test G Post-Emergence Protocol; conditions: Setaria faberi, post-emergence, 312 h, read-out: Foxtail, Giant damage rating; for pest or weed control at 15.625 g/ha: 15.625 g ai/ha, evaluated after 13 days (100=total damage to plant; 0=no damage to plant); for pest or weed control at 62.5 g/ha: 62.5 g ai/ha; for pest or weed control at 62.5 g/ha / pest or weed control at 250 g/ha: evaluated after 13 days, 100=total damage to plant, 0=no damage to plant; for pest or weed control at 250 g/ha: 250 g ai/ha
Outline: as §2

[10] = tested on: ivy-leaved morning glory (Ipomoea hederacea); assay: Test G Post-Emergence Protocol; conditions: Ipomoea, post-emergence, 312 h, read-out: Morningglory, Ivy-leaved damage rating; for pest or weed control at 15.625 g/ha: 15.625 g ai/ha, evaluated after 13 days (100=total damage to plant; 0=no damage to plant); for pest or weed control at 62.5 g/ha: 62.5 g ai/ha; for pest or weed control at 62.5 g/ha / pest or weed control at 250 g/ha: evaluated after 13 days, 100=total damage to plant, 0=no damage to plant; for pest or weed control at 250 g/ha: 250 g ai/ha
Outline: as §2

[11] = tested on: redroot pigweed (Amaranthus retroflexus); assay: Test G Post-Emergence Protocol; conditions: Amaranthus retroflexus, post-emergence, 312 h, read-out: Pigweed, Redroot damage rating; for pest or weed control at 15.625 g/ha: 15.625 g ai/ha, evaluated after 13 days (100=total damage to plant; 0=no damage to plant); for pest or weed control at 62.5 g/ha: 62.5 g ai/ha; for pest or weed control at 62.5 g/ha / pest or weed control at 250 g/ha: evaluated after 13 days, 100=total damage to plant, 0=no damage to plant; for pest or weed control at 250 g/ha: 250 g ai/ha
Outline: as §2

[12] = tested on: velvetleaf (Abutilon theophrasti); assay: Test G Post-Emergence Protocol; conditions: Abutilon theophrasti, post-emergence, 312 h, read-out: Velvetleaf damage rating; for pest or weed control at 15.625 g/ha: 15.625 g ai/ha, evaluated after 13 days (100=total damage to plant; 0=no damage to plant); for pest or weed control at 62.5 g/ha: 62.5 g ai/ha; for pest or weed control at 62.5 g/ha / pest or weed control at 250 g/ha: evaluated after 13 days, 100=total damage to plant, 0=no damage to plant; for pest or weed control at 250 g/ha: 250 g ai/ha
Outline: as §2

For `COCCOc1cc([C@@H]2CN(C)C(=O)[C@H]2C(=O)Nc2cccc(F)c2C)ccc1C` (racemic) [Compound 1790], the pest or weed control at 15.625 g/ha [1] was 40%, the pest or weed control at 62.5 g/ha [1] was 70% and the pest or weed control at 250 g/ha [1] was 90%. It also gave a plant injury at 15.625 g/ha (corn (Zea mays) [2]) of 20%, a plant injury at 62.5 g/ha (corn (Zea mays) [2]) of 70% and a plant injury at 250 g/ha (corn (Zea mays) [2]) of 90%. For the same compound, the pest or weed control at 15.625 g/ha [3] was 70%, the pest or weed control at 62.5 g/ha [3] was 70% and the pest or weed control at 250 g/ha [3] was 90%. The pest or weed control at 15.625 g/ha [4] was 0%, the pest or weed control at 62.5 g/ha [4] was 20% and the pest or weed control at 250 g/ha [4] was 70%. It also gave a pest or weed control at 15.625 g/ha [5] of 0%, a pest or weed control at 62.5 g/ha [5] of 0% and a pest or weed control at 250 g/ha [5] of 10%. The pest or weed control at 15.625 g/ha [6] was 0%, the pest or weed control at 62.5 g/ha [6] was 0% and the pest or weed control at 250 g/ha [6] was 40%. The pest or weed control at 15.625 g/ha [7] was 50%, the pest or weed control at 62.5 g/ha [7] was 70% and the pest or weed control at 250 g/ha [7] was 70%. It also gave a plant injury at 15.625 g/ha (corn (Zea mays) [8]) of 50%, a plant injury at 62.5 g/ha (corn (Zea mays) [8]) of 70% and a plant injury at 250 g/ha (corn (Zea mays) [8]) of 80%. For the same compound, the pest or weed control at 15.625 g/ha [9] was 70%, the pest or weed control at 62.5 g/ha [9] was 80% and the pest or weed control at 250 g/ha [9] was 80%. It also gave a pest or weed control at 15.625 g/ha [10] of 20%, a pest or weed control at 62.5 g/ha [10] of 20% and a pest or weed control at 250 g/ha [10] of 40%. It also gave a pest or weed control at 15.625 g/ha [11] of 0%, a pest or weed control at 62.5 g/ha [11] of 0% and a pest or weed control at 250 g/ha [11] of 0%. The pest or weed control at 15.625 g/ha [12] was 0%, the pest or weed control at 62.5 g/ha [12] was 20% and the pest or weed control at 250 g/ha [12] was 30%.

For `CN1C[C@H](c2ccnc(C(C)(C)C)n2)[C@@H](C(=O)Nc2cccc(F)c2F)C1=O` (racemic) [Compound 1769], the pest or weed control at 15.625 g/ha [1] was 0%, the pest or weed control at 62.5 g/ha [1] was 20% and the pest or weed control at 250 g/ha [1] was 70%. It also gave a plant injury at 15.625 g/ha (corn (Zea mays) [2]) of 0%, a plant injury at 62.5 g/ha (corn (Zea mays) [2]) of 0% and a plant injury at 250 g/ha (corn (Zea mays) [2]) of 0%. For the same compound, the pest or weed control at 15.625 g/ha [3] was 20%, the pest or weed control at 62.5 g/ha [3] was 40% and the pest or weed control at 250 g/ha [3] was 90%. It also gave a pest or weed control at 15.625 g/ha [4] of 0%, a pest or weed control at 62.5 g/ha [4] of 0% and a pest or weed control at 250 g/ha [4] of 0%. The pest or weed control at 15.625 g/ha [5] was 0%, the pest or weed control at 62.5 g/ha [5] was 0% and the pest or weed control at 250 g/ha [5] was 0%. The pest or weed control at 15.625 g/ha [6] was 0%, the pest or weed control at 62.5 g/ha [6] was 0% and the pest or weed control at 250 g/ha [6] was 0%. For the same compound, the pest or weed control at 15.625 g/ha [7] was 0%, the pest or weed control at 62.5 g/ha [7] was 0% and the pest or weed control at 250 g/ha [7] was 50%. The plant injury at 15.625 g/ha (corn (Zea mays) [8]) was 0%, the plant injury at 62.5 g/ha (corn (Zea mays) [8]) was 0% and the plant injury at 250 g/ha (corn (Zea mays) [8]) was 10%. It also gave a pest or weed control at 15.625 g/ha [9] of 0%, a pest or weed control at 62.5 g/ha [9] of 10% and a pest or weed control at 250 g/ha [9] of 60%. The pest or weed control at 15.625 g/ha [10] was 0%, the pest or weed control at 62.5 g/ha [10] was 0% and the pest or weed control at 250 g/ha [10] was 20%. For the same compound, the pest or weed control at 15.625 g/ha [11] was 0%, the pest or weed control at 62.5 g/ha [11] was 0% and the pest or weed control at 250 g/ha [11] was 0%. For the same compound, the pest or weed control at 15.625 g/ha [12] was 0%, the pest or weed control at 62.5 g/ha [12] was 0% and the pest or weed control at 250 g/ha [12] was 0%.
